In brackets after ≈: the same amount, converted by molar mass. Entries after “also recorded” stand apart in the source; their conditions may differ. Counter-ions that a name gives are not always drawn. Like-named read-outs stand apart in the source and are kept apart here. Where a SMILES comes first, the peptide text is derived from it. Where no end group is shown, it is not given here. [ ]: non-standard residue; d: D form. 2Thi = N[C@@H](Cc1cccs1)C(=O)O
Columns and labels:
E. coli ATCC 25922 = assay type: cell-based, Escherichia coli; conditions: ATCC 25922, 20 h
Experimental: (§1) The antimicrobial activities of the peptides were tested against E. coli ATCC 25922, P. aeruginosa ATCC 27853, carbapenem-resistant P. aeruginosa SIPI-012, A. baumannii ATCC 19606, carbapenem-resistant A. baumannii SIPI-025, S. aureus ATCC 25923, and C. albicans ATCC 10231. The minimum inhibitory concentration (MIC) values were determined using the microdilution method according to Clinical and Laboratory Standards Institute guidelines ([CLSI, 2008], [2012]). The peptides were dissolved in 10 mM PB to a concentration of 1280 μg/mL as stock solutions.
(§2) For inoculum preparation of bacteria, morphologically similar colonies selected from fresh MH agar plates were transferred using a loop into approximately 10 mL of MH broth in a capped test tube and vortexed. The suspension was adjusted with MH broth to achieve a turbidity equivalent to a 0.5 McFarland standard (BaSO4 solution prepared spectrophotometrically). A working suspension was prepared by making a 1:15 dilution followed by a 1:20 dilution of the stock suspension with MH broth medium to obtain approximately 5 × 10^5 CFU/mL. For inoculum preparation of yeast, five fresh colonies of approximately 1 mm diameter were picked from 24-hour-old cultures of C. albicans and suspended in 5 mL of sterile 0.85% saline. The resulting suspension was vortexed and the cell density was adjusted by adding sufficient sterile saline to achieve a turbidity equivalent to a 0.5 McFarland standard. A working suspension was prepared by making a 1:100 dilution followed by a 1:20 dilution of the stock suspension with RPMI 1640 broth medium to obtain 0.5 × 10^3 to 2.5 × 10^3 CFU/mL. Intermediate twofold dilutions of the peptides were prepared in MH broth and RPMI 1640 medium, and 90 μL aliquots were added to each well in addition to 10 μL of the inoculum prepared above.
(§3) Each plate included a growth control well and a sterility (uninoculated) control well. Colistin, vancomycin hydrochloride, and amphotericin B were used as positive controls for gram-negative bacteria, gram-positive bacteria, and fungi, respectively. The bacterial and fungal plates were incubated at 37°C for 20 h and 35°C for 48 h, respectively, both under ambient atmosphere. The inhibition of microbial growth was assessed visually. The MICs were determined from independent triplicate assays.

P. aeruginosa ATCC 27853 = assay type: cell-based, Pseudomonas aeruginosa; conditions: ATCC 27853, 20 h
Experimental: as §1, §2, §3

[1] = system: carbapenem-resistant P. aeruginosa (CRPA) SIPI-012; assay type: cell-based, Pseudomonas aeruginosa; conditions: carbapenem-resistant (CRPA) SIPI-012, 20 h
Experimental: as §1, §2, §3

A. baumannii ATCC 19606 = assay type: cell-based, Acinetobacter baumannii; conditions: ATCC 19606, 20 h
Experimental: as §1, §2, §3

[2] = system: carbapenem-resistant A. baumannii (CRAB) SIPI-025; assay type: cell-based, Acinetobacter baumannii; conditions: carbapenem-resistant (CRAB) SIPI-025, 20 h
Experimental: as §1, §2, §3

S. aureus ATCC 25923 = assay: microbe, parasite or virus in culture; assay type: cell-based, Staphylococcus aureus
Experimental: as §1, §2, §3

C. albicans ATCC 10231 = assay: microbe, parasite or virus in culture; assay type: cell-based, Candida albicans
Experimental: as §1, §2, §3

[3] = system: proteases secreted by S. aureus ATCC 25923; assay: in vitro; conditions: for remaining at 24 h, 0.5 mg/mL: Staphylococcus aureus, S. aureus ATCC 25923 culture supernatant, pH 8
Experimental: The stabilities of the peptides toward proteases secreted by E. coli ATCC 25922, P. aeruginosa ATCC 27853, A. baumannii ATCC 19606, S. aureus ATCC 25923, and C. albicans ATCC 10231 were also examined. Microbial supernatants were prepared by resuspending single colonies of each strain in 20 mL of an appropriate culture medium followed by incubation at 37°C overnight. MH broth and 2% tryptone/2% dextrose were used as the culture media for bacteria and yeast, respectively. Each culture was then centrifuged at 12,000 × g for 10 min and the supernatant was adjusted to pH 8.0 with HCl or NaOH and then filtered through a 0.22 μm sterile filter membrane ([Zaet et al., 2017]). The peptides were then dissolved in the filtered supernatants to a concentration of 0.5 mg/mL, and the peptide-free supernatants were used as negative controls. The samples were incubated at 37°C for 24 h in a water bath and then analyzed by RP-HPLC as described above.

human erythrocytes = assay: Hemolytic activity assay; assay type: cell-based; conditions: human RBC in PB, 37°C, 1 h, OD420, total lysis control 0.1% SDS, three technical replicates
Experimental: Whole blood was obtained from a healthy volunteer. The red blood cells (RBC) were then centrifuged (800 × g, 10 min), washed twice with PB, resuspended in 1 mL of PB, and incubated with various concentrations of the peptides (32–128 μM) at 37°C for 1 h. As a positive control, total lysis of the RBC was accomplished by incubation with 0.1% SDS. For each condition, three technical replicates were performed. After incubation, the RBC were centrifuged at 800 × g for 10 min and the amount of hemoglobin released into the supernatant was determined by measuring the optical density OD420 using a SpectraMax i3x microplate reader (Molecular Devices) ([Zaet et al., 2017]).

RAW 264.7 cells = assay: Cell viability assay (MTT); assay type: cell-based, mouse; conditions: 1–128 μM peptide in DMEM with 4% FBS, 42 h, 595 nm, triplicate
Experimental: The peptides were dissolved in ddH2O to a concentration of 256 μM. RAW 264.7 cells were cultured in 100 μL of DMEM containing 10% FBS and seeded at a density of 1 × 10^4 cells in a 96-well culture plate. The plate was incubated at 37°C under 5% CO2 atmosphere overnight. After attaining 80% confluency, the cells were treated with various concentrations of the peptides (1–128 μM) dissolved in DMEM containing 4% FBS for 42 h. Cytotoxicity was determined using the MTT tetrazolium reduction assay and quantified spectrophotometrically at 595 nm using a SpectraMax i3x microplate reader. The cell viability was calculated with respect to control samples treated only with DMEM containing 4% FBS ([Khara et al., 2016]). Each test was done in triplicate and the concentration required for 50% inhibition of viability (IC50) was determined.

human plasma proteases = assay: in vitro
Trypsin = assay: trypsin in 0.1 M NH4HCO3 buffer (pH 8.2); conditions: 37°C, up to 24 h

| Compound | MIC (E. coli ATCC 25922) [µg/mL] | MIC (P. aeruginosa ATCC 27853) [µg/mL] | MIC [1] [µg/mL] | MIC (A. baumannii ATCC 19606) [µg/mL] | MIC [2] [µg/mL] | MIC (S. aureus ATCC 25923; ATCC 25923, 20 h) [µg/mL] | MIC (C. albicans ATCC 10231; ATCC 10231, 48 h) [µg/mL] | remaining at 24 h, 0.5 mg/mL [3] [%] | Hemolysis rate (%) (human erythrocytes; 64 μM) | Hemolysis rate (%) (human erythrocytes; 128 μM) | IC50 (RAW 264.7 cells) [µM] | metabolised at 2 h, 0.1 mg/mL (human plasma proteases) [%] | metabolised at 4 h, 0.1 mg/mL (human plasma proteases) [%] | Percent of remained peptide amount after incubation (%) ([3]; S. aureus ATCC 25923 culture supernatant (MH broth), pH 8.0, 0.22 μm filtered, peptide 0.5 mg/mL, 37°C, 24 h, RP-HPLC) | MIC (S. aureus ATCC 25923; Staphylococcus aureus, ATCC25923, 20 h) [µg/mL] | MIC (C. albicans ATCC 10231; Candida albicans, ATCC10231, C. albicans ATCC 10231, RPMI 1640, 35°C, 48 h, visual, independent triplicate assays, read-out: MIC) [µg/mL] | fragment found (Trypsin) |
| --- | --- | --- | --- | --- | --- | --- | --- | --- | --- | --- | --- | --- | --- | --- | --- | --- | --- |
| KRLFKRLFKYLRRF-NH2 [LP01] | 2 | 1 | 4 | 2 | 2 | 1 | 4 | 33.3 ± 5.69 | 29.58 ± 0.83 | 37.14 ± 1.29 | 16.6 ± 3.79 | > 40 | > 50 |  |  |  |  |
| CC(C)C[C@H](NC(=O)[C@H](Cc1ccc(O)cc1)NC(=O)[C@H](CCCCN)NC(=O)[C@H](CC(C)C)NC(=O)[C@H](CC(C)C)NC(=O)[C@@H](CCCCN)NC(=O)[C@@H](CCCCN)NC(=O)[C@H](Cc1ccccc1)NC(=O)[C@H](CC(C)C)NC(=O)[C@H](CCCNC(=N)N)NC(=O)[C@@H](N)CCCCN)C(=O)N[C@@H](CCCNC(=N)N)C(=O)N[C@H](CCCCN)C(=O)N[C@@H](Cc1ccccc1)C(N)=O [DP04] (H-KRLF[dK][dK]LLKYLR[dK]F-NH2) | 1 (≈ 0.532 µM) | 1 (≈ 0.532 µM) | 4 (≈ 2.13 µM) | 2 (≈ 1.06 µM) | 1 (≈ 0.532 µM) | 0.5 (≈ 0.266 µM) | 4 (≈ 2.13 µM) | 63.7 ± 8.1 | 38.84 ± 1.61 | 58.26 ± 1.84 | 34.7 ± 3.69 | > 40 | > 50 |  |  |  |  |
| CC(C)C[C@H](NC(=O)[C@H](Cc1ccc(O)cc1)NC(=O)[C@H](CCCCN)NC(=O)[C@H](CC(C)C)NC(=O)[C@H](CC(C)C)NC(=O)[C@H](CCCCN)NC(=O)[C@H](CCCCN)NC(=O)[C@H](Cc1cccs1)NC(=O)[C@H](CC(C)C)NC(=O)[C@H](CCCNC(=N)N)NC(=O)[C@@H](N)CCCCN)C(=O)N[C@@H](CCCNC(=N)N)C(=O)N[C@@H](CCCCN)C(=O)N[C@@H](Cc1cccs1)C(N)=O [UP07] (H-KRL[2Thi]KKLLKYLRK[2Thi]-NH2) | 1 (≈ 0.528 µM) | 1 (≈ 0.528 µM) | 4 (≈ 2.11 µM) | 2 (≈ 1.06 µM) | 2 (≈ 1.06 µM) | 1 (≈ 0.528 µM) | 4 (≈ 2.11 µM) |  | 18.23 ± 2.76 | 30.10 ± 2.61 | 17.5 ± 2.99 | > 40 | > 50 | 24.86 ± 3.88 |  |  |  |
| CN[C@H](CC(C)C)C(=O)N[C@H]1C(=O)N[C@@H](CC(N)=O)C(=O)N[C@H]2C(=O)N[C@H]3C(=O)N[C@H](C(=O)N[C@H](C(=O)O)c4cc(O)cc(O)c4-c4cc3ccc4O)[C@H](O)c3ccc(c(Cl)c3)Oc3cc2cc(c3O[C@@H]2O[C@H](CO)[C@@H](O)[C@H](O)[C@H]2O[C@H]2C[C@](C)(N)[C@H](O)[C@H](C)O2)Oc2ccc(cc2Cl)[C@H]1O [Van, vancomycin hydrochloride, reference compound] |  |  |  |  |  |  |  |  |  |  |  |  |  |  | 0.5 |  |  |
| C[C@@H]1[C@H](O)[C@@H](C)/C=C/C=C/C=C/C=C/C=C/C=C/C=C/[C@H](O[C@@H]2O[C@H](C)[C@@H](O)[C@H](N)[C@@H]2O)C[C@@H]2O[C@](O)(C[C@@H](O)C[C@@H](O)[C@H](O)CC[C@@H](O)C[C@@H](O)CC(=O)O[C@H]1C)C[C@H](O)[C@H]2C(=O)O [AmB, amphotericin B, reference compound] |  |  |  |  |  |  |  |  |  |  |  |  |  |  |  | 0.25 (≈ 0.271 µM) |  |
| krLFkkLLkYLrkF |  |  |  |  |  |  |  |  |  |  |  |  |  |  |  |  | krLFkkLLkYLr (k) 1–12, major, 18 h; also recorded: (r) LFkkLLkYLr (k) 3–12, major, 18 h |
| RRIFKRLFKYLRRF-NH2 [LP02] | 2 | 2 | 8 | 2 | 4 | 1 | 8 | 19.7 ± 8.58 | 24.18 ± 2.01 | 45.40 ± 2.40 | 14.4 ± 1.44 | > 40 | > 50 |  |  |  |  |
| KRLFkkLLKYLRkF |  |  |  |  |  |  |  |  |  |  |  |  |  |  |  |  | (k) kLLK (Y) 6–9, major, 18 h; also recorded: (K) YLR (k) 10–12, major, 18 h; also recorded: (K) YLRkF 10–14, major, 18 h; also recorded: (K) RLFk (k) 2–5, major, 18 h |
